Measured values as given in article PMC7852560 (Neuropsychopharmacology, 2020).
Values joined by “and” are separate entries in the source; they are usually repeats but may differ in a detail not shown here. Equal entries are not always repeated. Where two headings read alike, the source gives them in different places.

Assays:
CB1R [1] = molecular target: T1, CB1R (Homo sapiens, UniProt P21554); assay: cell-based; type: cell-based
Procedure: The cAMP BRET experiments were performed as previously described. Briefly, hCB1R HEK293 cells were transfected with 5 µg/10 cm dish of the CAMYEL biosensor using polyethylenimine. After 24 h, the cells were plated into white 96-well plates (PerkinElmer) at a density of 60,000 cells/well.
Cyclic AMP accumulation was measured using a DiscoverX HitHunter® cAMP Assay for Small Molecules (DiscoverX, Fremont, CA). hCB1R CHO cells were seeded at a density of 40,000 cells/well in 96-well white plates and grown overnight at 37 °C, 5% CO2 in a humidified incubator. […] Vehicle concentration was 1% DMSO, 0.1% BSA. Following agonist incubation, 15 µl of cAMP antibody reagent and 60 µl of working cAMP detection solution (containing 19 parts cAMP lysis buffer, 5 parts Substrate Reagent 1, 1 part Substrate Reagent 2 and 25 parts of cAMP Solution D) were added to all wells. Assay plates were incubated in the dark for 1 hr at room temperature, followed by addition of 60 µl cAMP solution A to all wells and incubation for 3 hr at room temperature in the dark. Plates were read using a GloMax Discover plate-reader (Promega, Madison, WI).

C57Bl/6J mice = type: in vivo; conditions: 10 mg/kg i.p., 30 min before test, compared to vehicle
Text: (i.p.) before testing. The EPM was composed of 4 opaque-white arms (2 opposite arms closed, 2 opposite arms open), arranged in a plus shape, with an open center. The dimensions were as follows; maze elevation (38.7cm), open arm (L:30.5 cm, W:5 cm, H:0 cm), closed arm (L:30.5 cm, W:5 cm, H:15.2 cm) and center (5 cm x 5 cm). The experiment mouse was placed in the center of the maze and allowed to freely explore the maze for 8-min (50lux), while being tracked with an overhead camera. Open and closed arm times were recorded and collected by Biobserve Viewer3 software. The percentage of time spent in the open arms as compared to closed arms and center time was calculated and expressed as a percent of time spent in the open or closed arms of the maze.

CB2 = molecular target: T2, CB2 (Homo sapiens, UniProt P34972); assay: SafetyScreen44 panel: CB2; type: binding; conditions: 1 µM
T2 construct: Eurofins Cerep
T2 sequence (P34972 whole entry): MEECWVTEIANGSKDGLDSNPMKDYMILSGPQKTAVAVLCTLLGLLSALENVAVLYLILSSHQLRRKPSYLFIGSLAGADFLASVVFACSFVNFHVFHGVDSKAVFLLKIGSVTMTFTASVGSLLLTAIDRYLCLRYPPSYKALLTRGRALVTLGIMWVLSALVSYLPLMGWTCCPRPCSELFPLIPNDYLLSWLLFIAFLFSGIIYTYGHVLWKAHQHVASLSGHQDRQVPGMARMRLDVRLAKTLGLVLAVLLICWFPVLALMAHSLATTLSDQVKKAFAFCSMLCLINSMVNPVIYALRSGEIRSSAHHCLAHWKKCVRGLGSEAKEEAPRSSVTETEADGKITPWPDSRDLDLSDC
Procedure: (§1) The screen assesses the selectivity of the compound on a diverse panel of targets that includes GPCRs, drug transporters, ion channels, nuclear receptors, kinases, and other non-kinase enzymes. The screen employs radioligand binding or enzyme assays for these 44 targets.
(§2) For receptor assays, binding was calculated as percent inhibition of the binding of a radioactively labeled ligand specific for each target. For enzyme assays, the inhibition effect was calculated as percent inhibition of control enzyme activity. Tests were performed in duplicate, and results are averages of those two tests. See https://www.eurofinsdiscoveryservices.com.

5HT1B = molecular target: T3, 5HT1B (Rattus norvegicus, UniProt P28564); assay: SafetyScreen44 panel: 5HT1B; type: binding; conditions: 1 µM
T3 construct: Eurofins Cerep
T3 sequence (P28564 whole entry): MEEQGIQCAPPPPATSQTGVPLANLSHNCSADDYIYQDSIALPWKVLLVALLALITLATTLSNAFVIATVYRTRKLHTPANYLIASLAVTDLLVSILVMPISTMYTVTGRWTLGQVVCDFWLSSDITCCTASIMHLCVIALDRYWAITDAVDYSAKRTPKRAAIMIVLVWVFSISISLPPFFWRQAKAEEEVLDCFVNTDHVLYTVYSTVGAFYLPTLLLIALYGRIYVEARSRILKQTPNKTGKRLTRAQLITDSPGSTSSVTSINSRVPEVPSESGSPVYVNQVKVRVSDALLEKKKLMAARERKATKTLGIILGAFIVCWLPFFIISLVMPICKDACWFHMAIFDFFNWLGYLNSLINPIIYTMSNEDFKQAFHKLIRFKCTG
Procedure: as §1, §2

GluN1KD mice = assay: Open-field test in GluN1KD mice; conditions: ABM300 10 mg/kg, OLA 1 mg/kg i.p., 30 min before test
CB1R [2] = molecular target: T1, CB1R; assay: cell-based; set-up: beta-galactosidase enzyme fragment (EFC; ProLink by own knowledge); conditions: in the presence of the EC80 of CP55,940 (10 nM)
Procedure: The PathHunter® β-Arrestin assay was conducted by Eurofins Pharma Discovery Services (further details can be found at https://www.eurofinsdiscoveryservices.com).
The PathHunter® β-Arrestin assay was conducted by Eurofins Pharma Discovery Services. The assay monitors the activation of a GPCR in a homogenous, non-imaging assay format using a technology developed by DiscoverX called Enzyme Fragment Complementation (EFC) with β-galactosidase (β-Gal) as the functional reporter. Vehicle concentration was 1% DMSO in these assays.

Male C57Bl/6J mice = assay: Cannabinoid-induced tetrad; type: in vivo; conditions: 10 mg/kg i.p., 30 min prior
Procedure: Male C57Bl/6J mice (PD > 70) were tested on the cannabinoid-induced tetrad, as previously described.
(i.p.) before testing. The tetrad was performed (1) catalepsy, (2) locomotion, (3) temperature, and (4) analgesia. Catalepsy: time (s) spent immobile with front paws on a plastic rod (1.5cm diameter), at a height of 4.5-cm from the table, before adjusting abnormal posture (either front paws being removed from the bar, or back paws climbing onto bar). Locomotion: horizontal activity (cm) was immediately measured in an open field test, following catalepsy, for 15-min. in 1-min bins. Temperature: rectal temperature (°C) was measured immediately following open-field testing, using a thermometer with rectal probe (Labcorp, Fisher, Waltham, MA). Analgesia: latency (s) to withdraw tail from hot water bath (52 °C), to assess tail-flick antinociception, was completed immediately following temperature readings.

in vitro = in vitro ADME, human; conditions: pH 7.4
Procedure: Microsomal stability assays were conducted by Cyprotex Ltd (Macclesfield, UK).
The study of drug stability in the presence of liver microsomes is accepted as a valuable model for permitting rapid prediction of in vivo drug stability (see Kerns & Di, 2008). Microsomal stability studies were performed by Cyprotex Ltd (Macclesfield, UK). […] Microsomes (final protein concentration 0.5 mg/mL), 0.1 M phosphate buffer pH 7.4, and test compound (final concentration 3 μM; diluted from 10 mM stock solution to give a final DMSO concentration of 0.25%) were incubated at 37°C prior to the addition of NADPH (final concentration 1 mM) to initiate the reaction with a final incubation volume of 25 µL. A control incubation was included for each compound tested, where 0.1 M phosphate buffer pH 7.4 was added instead of NADPH. The control compounds testosterone and 7-hydroxycoumarin were included in each experiment and all incubations were performed singularly for each compound. […] Following protein precipitation, the sample supernatants were combined in cassettes of up to 4 compounds and analyzed using standard LC-MS/MS conditions. From a plot of the natural logarithm of the peak area ratio (i.e., the ratio of compound peak area: internal standard peak area) against time, the gradient of the line was determined. Subsequently, half-life and intrinsic clearance were calculated using the equations below: […]

CB1R [3] = molecular target: T1, CB1R; assay: cell-based

T1 sequence (P21554 whole entry): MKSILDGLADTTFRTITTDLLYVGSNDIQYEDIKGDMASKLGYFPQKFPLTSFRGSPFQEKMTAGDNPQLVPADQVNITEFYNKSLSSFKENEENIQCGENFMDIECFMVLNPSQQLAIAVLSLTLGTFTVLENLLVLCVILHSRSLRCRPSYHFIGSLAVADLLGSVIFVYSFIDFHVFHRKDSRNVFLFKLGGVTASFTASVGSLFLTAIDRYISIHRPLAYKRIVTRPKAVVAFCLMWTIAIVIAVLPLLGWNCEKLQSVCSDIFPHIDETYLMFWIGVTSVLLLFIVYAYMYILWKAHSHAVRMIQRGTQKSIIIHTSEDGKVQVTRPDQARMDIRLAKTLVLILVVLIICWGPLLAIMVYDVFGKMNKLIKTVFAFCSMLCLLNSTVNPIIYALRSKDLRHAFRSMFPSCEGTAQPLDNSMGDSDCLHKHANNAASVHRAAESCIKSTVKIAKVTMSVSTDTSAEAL

CCc1c(-c2nnc(Nc3ccccc3)o2)[nH]c2ccc(Cl)cc12 [ABM300, 5-(5-chloro-3-ethyl-1H-indol-2-yl)-N-phenyl-1,3,4-oxadiazol-2-amine]
IC50 (CB1R [1]): 379 nM and 355 nM and 380 nM | time spent in the open arms (EPM) (C57Bl/6J mice): did not affect | binding to CB2 (CB2): did not display any significant binding | binding to 5HT1B (5HT1B): did not display any significant binding | exaggerated stereotypic activity (GluN1KD mice): significantly reduced | novelty-induced hyperactivity (distance traveled) (GluN1KD mice): decreases | rearing behavior (vertical exploration) (GluN1KD mice): significantly reduced | IC50 (CB1R [2]; read-out: IC50, reduction in β-arrestin recruitment): 49.7 nM and 50 nM | IC50 (CB1R [2]; read-out: pIC50, reduction in β-arrestin recruitment (converted)): 49 nM | tetrad: catalepsy-induced immobility time (Male C57Bl/6J mice): no effect | tetrad: percent inhibition of locomotor activity (15 min) (Male C57Bl/6J mice): no effect | tetrad: rectal temperature (Male C57Bl/6J mice): no effect | tetrad: tail withdrawal (% MPE) (Male C57Bl/6J mice): no effect | half-life at 3 µM (in vitro; microsomes, human liver microsomal preparations): 1.82 h | microsomal CLint at 3 µM (in vitro; human liver microsomes): 12.7 ± 3.4 µL/min/mg | IC50 (CB1R [3]; read-out: IC50, reduction in ERK1/2 phosphorylation): 47 nM | IC50 (CB1R [3]; read-out: pIC50, reduction in ERK1/2 phosphorylation (converted)): 41.7 nM
